Measured values from patent US9221868B2, “Uridine di- or tri-phosphate derivatives and uses thereof” (BAR-ILAN UNIVERSITY, priority 2010, dated 2015).

Experiments:
P2Y4-R = target: T1, P2Y4-R (Homo sapiens, UniProt P51582); assay: [Ca2+]i increase in 1321N1 astrocytoma cells expressing P2Y4-R; assay type: cell-based; conditions: n.d.r = no detectable response up to 100 μM
T1 construct: expressed in transfected cells; host or cells: 1321N1 astrocytoma cells
Experimental: (§1) Green fluorescent protein (GFP) constructs of human P2Y2-R, P2Y4-R and P2Y6-R were expressed in 1321N1 astrocytoma cells, which lack endogenous expression of P2X- and P2Y-receptors. The respective cDNA of the receptor gene was cloned into a pEGFPN1 vector. After transfection using FuGENE 6 Transfection Reagent (Roche Molecular Biochemicals, Mannheim, Germany), the cells were selected with 0.5 mg/ml G418 (geneticine; Merck Chemicals, Darmstadt, Germany) and grown in Dulbecco's modified Eagles' medium (DMEM) supplemented with 10% fetal calf serum, 100 U/ml penicillin and […] at 37° C. and 5% CO2. The expression and cell membrane localization of the respective P2Y receptors was confirmed through the analysis of the GFP fluorescence. The functionality of the expressed GFP-labeled receptor in cells was verified by recording a change of [Ca^2+]i after stimulation with the appropriate receptor agonist.
(§2) 1321N1 astrocytoma cells transfected with the respective plasmid for P2YR-GFP expression plated on coverslips (22 mm diameter) and grown to approximately 80% density were incubated with 2 μM fura 2/AM and 0.02% pluronic acid in Na-HBS buffer (Hepes buffered saline: 145 mM NaCl, 5.4 mM KCl, 1.8 mM CaCl2, 1 mM MgCl2, 25 mM glucose, 20 mM Hepes/Tris pH 7.4) for 30 min at 37° C. The cells were superfused (1 ml/min, 37° C.) with different concentrations of nucleotide in Na-HBS buffer, and the nucleotide-induced change of [Ca^2+]i was measured by detecting the respective emission intensity of fura 2/AM at 510 nm with after 340 nm and 380 nm excitations (Ubl et al., 1998). The average maximal amplitude of the responses and the respective standard errors were calculated from the ratio of the fura 2/AM fluorescence intensities with excitations at 340 nm and 380 nm (only MT-labeled cells were analysed). Microsoft Excel (Microsoft Corp., Redmond, Wash., USA) and SigmaPlot (SPSS Inc., Chicago, Ill., USA) were used to derive the concentration-response curves and EC50 values from the average response amplitudes obtained in at least three independent experiments (Ecke et al., 2006, 2008). Only cells with a clear MT-signal and with the typical calcium response kinetics upon agonist pulse application were included in the data analysis. The GFP-tagged P2Y receptors are suitable for pharmacological and physiological studies, as previously reported (Tulapurkar et al., 2004, 2006; Zylberg et al., 2007).
(§3) In this study, analogues 13-17 were tested for their potency and selectivity at P2Y2,4,6-receptors based on measurements of increases in intracellular calcium concentrations in 1321N1 astrocytoma cells transfected with the respective plasmid, as described in Materials and Methods, and the results are summarized in Table 2.

P2Y2-R = P2Y2-R (Homo sapiens, UniProt P41231); assay: [Ca2+]i increase in 1321N1 astrocytoma cells expressing P2Y2-R; assay type: cell-based; set-up: expressed in transfected cells; host or cells: 1321N1 astrocytoma cells; conditions: 1321N1 astrocytoma cells, [Ca2+]i; n.d.r = no detectable response up to 100 μM
Sequence of P2Y2-R (P41231 whole entry): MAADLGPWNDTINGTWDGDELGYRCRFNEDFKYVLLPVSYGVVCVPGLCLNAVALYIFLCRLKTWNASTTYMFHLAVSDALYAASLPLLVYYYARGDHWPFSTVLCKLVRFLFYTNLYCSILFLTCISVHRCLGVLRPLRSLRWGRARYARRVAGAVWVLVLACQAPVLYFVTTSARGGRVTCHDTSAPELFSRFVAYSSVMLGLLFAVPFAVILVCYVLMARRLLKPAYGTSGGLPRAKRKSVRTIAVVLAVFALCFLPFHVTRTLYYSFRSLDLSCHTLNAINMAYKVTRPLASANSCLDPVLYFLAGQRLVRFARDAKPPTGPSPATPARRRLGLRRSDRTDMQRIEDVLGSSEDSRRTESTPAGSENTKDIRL
Experimental: as §1, §2, §3

P2Y6-receptor = P2Y6-receptor (Homo sapiens, UniProt Q15077); conditions: Ginsburg-Shmuel et al., 2010; read-out: EC50 at P2Y6-receptor (literature); cited from earlier work
Sequence of P2Y6-receptor (Q15077 whole entry): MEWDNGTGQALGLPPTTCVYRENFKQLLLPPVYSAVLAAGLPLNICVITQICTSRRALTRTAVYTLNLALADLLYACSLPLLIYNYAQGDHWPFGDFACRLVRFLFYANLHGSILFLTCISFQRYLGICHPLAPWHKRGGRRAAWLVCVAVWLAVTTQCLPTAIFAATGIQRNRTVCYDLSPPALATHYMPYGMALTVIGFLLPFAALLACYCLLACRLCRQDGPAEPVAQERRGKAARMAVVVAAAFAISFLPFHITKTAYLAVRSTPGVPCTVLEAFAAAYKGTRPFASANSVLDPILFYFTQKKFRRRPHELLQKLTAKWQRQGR

T1 sequence (P51582 whole entry): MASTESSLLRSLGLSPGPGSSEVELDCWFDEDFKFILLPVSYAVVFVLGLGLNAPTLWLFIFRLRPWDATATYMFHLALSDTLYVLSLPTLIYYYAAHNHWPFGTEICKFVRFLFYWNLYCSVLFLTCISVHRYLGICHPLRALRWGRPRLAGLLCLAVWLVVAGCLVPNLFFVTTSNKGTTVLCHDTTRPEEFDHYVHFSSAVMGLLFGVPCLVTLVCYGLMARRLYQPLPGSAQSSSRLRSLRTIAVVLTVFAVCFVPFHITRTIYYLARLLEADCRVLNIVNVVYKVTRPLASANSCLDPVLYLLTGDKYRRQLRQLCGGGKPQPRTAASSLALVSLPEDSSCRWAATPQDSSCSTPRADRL

Row | Compound | Potencies (EC50) at the P2Y4-R (P2Y4-R) | Potencies (EC50) at the P2Y2-R (P2Y2-R) | EC50 (P2Y6-receptor)
1 | [BH3-][P+](O)(OCC1OC(n2cc(OC)c(=O)[nH]c2=O)C(O)C1O)OP(=O)(O)O (single isomer, unassigned) [Analogue 13A, 5-methoxyuridine-5′-O-(α-boranodiphosphate)] | n.d.r | n.d.r | –
2 | O=c1ccn([C@@H]2O[C@H](COP(=O)(O)OP(=O)(O)O)[C@@H](O)[C@H]2O)c(=O)[nH]1 [UDP, reference compound] | – | – | 140 nM
